Data from US20240376097A1, “BCL-2 Inhibitor” (BeiGene Ltd., priority 2020, published 2024).
Like-named read-outs stand apart in the source and are kept apart here.

Assays:
[1] = target: recombinant human Bcl-2 D103Y protein (Homo sapiens (Human), UniProt P10415, D103Y); assay: Bcl-2-D103Y Biochemical Assay (TR-FRET); type: binding; conditions: for IC50: TR-FRET, FITC labeled Bak peptide; for Ratio of Bcl-2 D103Y/Bcl-2 WT: ratio of IC50
How it was run: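 Recombinant human Bcl-2 D103Y binding to its ligand measured by TR-FRET (ex 337 nm, em 490/520 nm) with increasing compound concentrations. Percent inhibition from the 490/520 nm ratio; IC50 from four-parameter logistic fit.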

[2] = target: recombinant human Bcl-2-G101V protein (Homo sapiens (Human), UniProt P10415, G101V); assay: Bcl-2-G101V TR-FRET Assay; type: binding; conditions: Bcl-2 G101V mutant, TR-FRET; read-out: Biochemical assay (IC50, nM) Bcl-2 G101V
How it was run: (§1)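 Ex337/em490 & 520 nm TR-FRET; % inhibition of Bcl-2-G101V–ligand interaction from 490:520 ratio vs. increasing compound conc.; IC50 by 4-parameter logistic fit.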

[3] = tested on: recombinant human Bcl-2-G101V protein; assay: Bcl-2-G101V TR-FRET Assay; type: binding; conditions: for Ratio of Bcl-2 G101V/WT: ratio of biochemical IC50 Bcl-2 G101V / Bcl-2 WT
How it was run: as §1

[4] = target: Recombinant human Bcl-2 protein (Homo sapiens (Human), UniProt P10415); assay: Bcl-2 TR-FRET Assay; type: binding
How it was run: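 0.05 nM Bcl-2 pre-incubated 0.5 h at room temperature with 10-point compound dilutions (top final 1, 0.1, 0.02 or 0.01 uM) in 20 mM potassium phosphate pH 7.5, 50 mM NaCl, 1 mM EDTA, 0.05% Tween-20, 0.01% BSA; FITC-Bak peptide (0.5 nM) and anti-6His Tb cryptate added, 1 h. IC50 from four-parameter logistic fit.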

[5] = tested on: RS4;11 (BCL-2 dependent acute lymphoblastic leukemia cell line); assay: RS4;11 Cell Proliferation Assay; type: cell-based; conditions: Homo sapiens, RS4-11, RS4;11 cells, read-out: Cellular proliferation assay (IC50, nM) RS4
How it was run: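 RS4;11 cells, 50,000 per well in RPMI-1640 with 10% FBS, treated 48 h at 37 °C with a 10-point dilution series topping at 1 μM. Viability read by CellTiter-Glo ATP luminescence; mean IC50 reported.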

[6] = tested on: BCL-2 G101V knock-in cell line H96 (derive from RS4;11); assay: Bcl 2-G101V Knock-In RS4;11 Cell Proliferation Assay; type: cell-based; conditions: Homo sapiens, RS4;11 Bcl-2 G101V knock-in clone H96, 48 hrs, CellTiter-GLO, read-out: Cellular proliferation assay (IC50, nM) RS4
How it was run: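 H96, a CRISPR-generated RS4;11 clone carrying BCL2-G101V knock-in (WES/RNA-seq validated), seeded 50,000 per well and exposed 48 h at 37 °C to 10-point dilutions topping at 1 or 10 μM. Viability by CellTiter-Glo luminescence; mean IC50.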

[7] = Bcl-2 wild type, TR-FRET, read-out: Biochemical assay (IC50, nM) Bcl-2 WT
[8] = wild type Bcl-2, unit inferred, read-out: Bcl-2 WT

Row | SMILES | IC50 [1] [nM] | Ratio of Bcl-2 D103Y/Bcl-2 WT [1] | IC50 [2] [nM] | Ratio of Bcl-2 G101V/WT [3] | IC50 [4, 7] [nM] | IC50 [4, 8] [nM] | IC50 [5] [nM] | IC50 [6] [nM] | ratio of Bcl-2 D103Y/Bcl-2 wt, compared with F91b in WO2019210828 ([1]; comparison in words) | ratio of IC50 of Bcl-2 G101V/Bcl-2 wt, compared with Example F132b in WO2019210828 and ABT-199 (venetoclax) ([3]; comparison in words)
1 | [2H]C([2H])([2H])Oc1cc(CN2CCN(C3CC4(C3)CN(c3ccc(C(=O)NS(=O)(=O)c5ccc(NC[C@H]6CC[C@](C)(O)CC6)c([N+](=O)[O-])c5)c(Oc5cnc6[nH]ccc6c5)c3)C4)[C@H](c3ccccc3C(C)C)C2)cc2ccoc12 [Example 323, 2-((1H-pyrrolo[2,3-b]pyridin-5-yl)oxy)-N-((4-((((1r,4r)-4-hydroxy-4-methylcyclohexyl)methyl)amino)-3-nitrophenyl)sulfonyl)-4-(6-((R)-2-(2-isopropylphenyl)-4-((7-(methoxy-d3)benzofuran-5-yl)methyl)piperazin-1-yl)-2-azaspiro [3.3]heptan-2-yl)benzamide] | 0.19 | 0.87 | 0.45 | 2.1 | 0.22 | 0.22 | 0.21 | 0.42 |  | 
2 | C#Cc1ccc(CN2CCN(C3CC4(CCN(c5ccc(C(=O)NS(=O)(=O)c6ccc(NC[C@H]7CC[C@](C)(O)CC7)c([N+](=O)[O-])c6)c(Oc6cnc7[nH]ccc7c6)c5)CC4)C3)C(c3ccccc3C(C)C)C2)cc1OC (stereo partly shown) [Example 162] | 0.61 | 1.6 | 1.5 | 3.8 | 0.38 | 0.38 | 0.373 | 2.04 |  | 
3 | COc1cc(CN2CCN(C3CC4(C3)CN(c3ccc(C(=O)NS(=O)(=O)c5ccc(NC[C@H]6CC[C@](C)(O)CC6)c([N+](=O)[O-])c5)c(Oc5cnc6[nH]cc(F)c6c5)c3)C4)[C@H](c3ccccc3C(C)C)C2)cc(C)c1OC [Example 231, 4-(6-((R)-4-(3,4-dimethoxy-5-methylbenzyl)-2-(2-isopropylphenyl)piperazin-1-yl)-2-azaspiro[3.3]heptan-2-yl)-2-((3-fluoro-1H-pyrrolo[2,3-b]pyridin-5-yl)oxy)-N-((4-((((1r,4r)-4-hydroxy-4-methylcyclohexyl)methyl)amino)-3-nitrophenyl)sulfonyl) benzamide] | 0.45 | 1.7 | 0.35 | 1.3 | 0.27 | 0.27 | 0.12 | 0.38 |  | 
4 | COc1cc(CN2CCN(C3CC4(C3)CN(c3ccc(C(=O)NS(=O)(=O)c5ccc(NC[C@H]6CC[C@](C)(O)CC6)c([N+](=O)[O-])c5)c(Oc5cnc6[nH]cc(F)c6c5)c3)C4)[C@H](c3ccccc3C(C)C)C2)ccc1F [Example 184, 2-((3-fluoro-1H-pyrrolo[2,3-b]pyridin-5-yl)oxy)-4-(6-((R)-4-(4-fluoro-3-methoxybenzyl)-2-(2-isopropylphenyl)piperazin-1-yl)-2-azaspiro[3.3]heptan-2-yl)-N-((4-((((1r,4r)-4-hydroxy-4-methylcyclohexyl)methyl)amino)-3-nitrophenyl)sulfonyl)benzamide] | 0.19 | 1 | 0.53 | 2.9 | 0.19 | 0.19 | 0.16 | 0.44 |  | 
5 | COc1ccc(C(=O)N2CCN(C3CC4(C3)CN(c3ccc(C(=O)NS(=O)(=O)c5ccc(NC[C@H]6CC[C@](C)(O)CC6)c([N+](=O)[O-])c5)c(Oc5cnc6[nH]cc(F)c6c5)c3)C4)[C@H](c3ccccc3C(C)C)C2)cc1 [Example 353] | 0.12 | 1.5 | 0.25 | 3.3 | 0.077 | 0.07 | 0.2 | 0.64 |  | 
6 | COc1cc(CN2CCN(C3CC4(CCN(c5ccc(C(=O)NS(=O)(=O)c6ccc(NC[C@H]7CC[C@](C)(O)CC7)c([N+](=O)[O-])c6)c(Oc6cnc7[nH]ccc7c6)c5)CC4)C3)[C@H](c3ccccc3C(C)C)C2)cc2c1OCCC2 [Example 302, 2-((1H-pyrrolo[2,3-b]pyridin-5-yl)oxy)-N-((4-((((1r,4r)-4-hydroxy-4-methylcyclohexyl)methyl)amino)-3-nitrophenyl)sulfonyl)-4-(2-((R)-2-(2-isopropylphenyl)-4-((8-methoxychroman-6-yl)methyl)piperazin-1-yl)-7-azaspiro[3.5]nonan-7-yl)benzamide] | 0.069 | 1.0 | 0.2 | 2.8 | 0.071 | 0.071 | 0.31 | 0.79 |  | 
7 | COc1ccc(CN2CCN(C3CC4(CCN(c5ccc(C(=O)NS(=O)(=O)c6ccc(NC[C@H]7CC[C@](C)(O)CC7)c([N+](=O)[O-])c6)c(Oc6cnc7[nH]cc(F)c7c6)c5)CC4)C3)[C@H](c3ccccc3C(C)C)C2)cn1 [Example 217, 2-((3-fluoro-1H-pyrrolo[2,3-b]pyridin-5-yl)oxy)-N-((4-((((1r,4r)-4-hydroxy-4-methylcyclohexyl)methyl)amino)-3-nitrophenyl)sulfonyl)-4-(2-((R)-2-(2-isopropylphenyl)-4-((6-methoxypyridin-3-yl)methyl)piperazin-1-yl)-7-azaspiro[3.5]nonan-7-yl)benzamide] | 0.1 | 1.4 | 0.17 | 2.4 | 0.074 | 0.074 | 0.11 | 0.41 |  | 
8 | COc1cc(CN2CCN(C3CC4(C3)CN(c3ccc(C(=O)NS(=O)(=O)c5ccc(NCC6CCOCC6)c([N+](=O)[O-])c5)c(Oc5cnc6[nH]cc(F)c6c5)c3)C4)[C@H](c3ccccc3C(C)C)C2)ccc1C1CC1 [Example 320, (R)-4-(6-(4-(4-cyclopropyl-3-methoxybenzyl)-2-(2-isopropylphenyl)piperazin-1-yl)-2-azaspiro[3.3]heptan-2-yl)-2-((3-fluoro-1H-pyrrolo[2,3-b]pyridin-5-yl)oxy)-N-((3-nitro-4-(((tetrahydro-2H-pyran-4-yl)methyl)amino)phenyl)sulfonyl) benzamide] | 0.52 | 0.93 | 1.7 | 3.1 | 0.55 | 0.55 | 0.19 | 0.47 |  | 
9 | COc1ccc(CN2CCN(C3CC4(C3)CN(c3ccc(C(=O)NS(=O)(=O)c5ccc(NC[C@H]6CC[C@](C)(O)CC6)c([N+](=O)[O-])c5)c(Oc5cnc6[nH]ccc6c5)c3)C4)C(c3ccccc3C(C)C)C2)cc1 (stereo partly shown) [Example 83, 2-((1H-pyrrolo[2,3-b]pyridin-5-yl)oxy)-N-((4-((((1r,4r)-4-hydroxy-4-methylcyclohexyl)methyl)amino)-3-nitrophenyl)sulfonyl)-4-(6-(2-(2-isopropylphenyl)-4-(4-methoxybenzyl)piperazin-1-yl)-2-azaspiro[3.3]heptan-2-yl) benzamide] | 0.16 | 2 | 0.25 | 3.1 | 0.079 | 0.079 | 0.27 | 0.73 | significantly lower | much lower
10 | CC(C)c1ccccc1C1CN(Cc2ccoc2)CCN1C1CC2(CCN(c3ccc(C(=O)NS(=O)(=O)c4ccc(NC[C@H]5CC[C@](C)(O)CC5)c([N+](=O)[O-])c4)c(Oc4cnc5[nH]ccc5c4)c3)CC2)C1 (stereo partly shown) [Example 20, 2-((1H-pyrrolo[2,3-b]pyridin-5-yl)oxy)-4-(2-(4-(furan-3-ylmethyl)-2-(2-isopropylphenyl)piperazin-1-yl)-7-azaspiro[3.5]nonan-7-yl)-N-((4-((((1r,4r)-4-hydroxy-4-methylcyclohexyl)methyl)amino)-3-nitrophenyl)sulfonyl)benzamide] | 0.25 | 4.6 | 0.58 | 10.9 | 0.053 | 0.053 | 0.62 | 5.91 |  | 
